Drawing on patent US20220332695A1, “UREA DERIVATIVES AS CB1 ALLOSTERIC MODULATORS” (RTI INTERNATIONAL, priority 2019, published 2022), this text covers IC50 for 46 molecules.

Like-named read-outs stand apart in the source and are kept apart here.

In assay [1] the target is T1, hCB1R (Homo sapiens, UniProt P21554). The assay can be described thus: Calcium mobilization assay, antagonist mode against CP55,940. Type of assay: cell-based. More on the design: expressed in transfected cells; host or cells: CHO-RD-HGA16 cells (parental line from Molecular Devices).
T1 sequence (P21554 whole entry): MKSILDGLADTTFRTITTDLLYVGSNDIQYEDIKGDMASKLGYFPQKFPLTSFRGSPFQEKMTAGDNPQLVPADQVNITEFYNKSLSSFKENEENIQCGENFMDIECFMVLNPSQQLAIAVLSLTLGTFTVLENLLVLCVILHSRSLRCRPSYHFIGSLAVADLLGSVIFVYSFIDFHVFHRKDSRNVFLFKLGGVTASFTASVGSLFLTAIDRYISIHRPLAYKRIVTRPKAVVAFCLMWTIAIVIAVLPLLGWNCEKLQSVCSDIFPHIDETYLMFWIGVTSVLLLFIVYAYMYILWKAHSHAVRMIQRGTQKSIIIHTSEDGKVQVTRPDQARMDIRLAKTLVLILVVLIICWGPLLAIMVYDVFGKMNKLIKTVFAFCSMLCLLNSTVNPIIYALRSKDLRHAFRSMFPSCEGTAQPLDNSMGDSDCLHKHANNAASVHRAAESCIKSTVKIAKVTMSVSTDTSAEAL
Method: Calcium Mobilization Assay: CHO-RD-HGA16 cells (Molecular Devices, San Jose, Calif., United States of America) stably expressing the human CB1 receptor were plated into 96-well black-walled assay plates at 25,000 cells/well in 100 pL of Ham's F12 (supplemented with 10% fetal bovine serum, 100 units of penicillin/streptomycin, and 100 µg/mL Normocin) and incubated overnight at 37° C., 5% CO2. Calcium 5 dye (Molecular Devices, San Jose, Calif., United States of America) was reconstituted according to the manufacturer's instructions. The reconstituted dye was diluted 1:40 in prewarmed (37° C.) assay buffer (1x HBSS, 20 mM HEPES, 2.5 mM probenecid, pH 7.4 at 37° C.). Growth medium was removed, and the cells were gently washed with 100 pL of prewarmed (37° C.) assay buffer. The cells were incubated for 45 min at 37° C., 5% CO2 in 200 pL of the diluted Calcium 5 dye solution. […] Serial dilutions of the test compounds were prepared at 10x the desired final concentration in 2.25% BSA/4.5% DMSO/4.5% EtOH/assay buffer. After the dye loading incubation period, the cells were pretreated with 25 pL of the test compound serial dilutions and incubated for 15 min at 37° C. After the pretreatment incubation period, the plate was read with a FLIPR Tetra (Molecular Devices, San Jose, Calif., United States of America). Calcium-mediated changes in fluorescence were monitored every 1 s over a 90 s time period, with the Tetra adding 25 pL of the CP55,940 EC80 concentration at the 10s time point (excitation/emission: 485/525 nm). Relative fluorescence units (RFU) were plotted against the log of compound concentrations. For agonist screens, the above procedure was followed except that cells were pretreated with 2.25% BSA/4.5% DMSO/4.5% EtOH/assay buffer and the Tetra added single concentration dilutions of the test compounds prepared at 10x the desired final concentration in 0.25% BSA/0.5% DMSO/0.5% EtOH/assay buffer. Test compound RFUs were compared to the CP55,940 Emax RFUs to generate % Emax values.
Data Analysis: For calcium mobilization experiments, data were fit to a three-parameter logistic curve to generate IC50 values (GraphPad Prism 6.0, Graphpad Software, San Diego, Calif., United States of America).
The target in assay [2] is T1, hCB1R. The assay can be described thus: [35S]GTPγS binding assay in HEK cells stably expressing human CB1R. In kind it is biochemical. More on the design: expressed in transfected cells; host or cells: HEK (HEK293) cells, membranes. The following applies: [CP] = 100 nM, mean (95% confidence interval), read-out: hCB1R [35S]GTPγS binding assay IC50. (In general: GTPγS is a poorly hydrolysed GTP analogue; its binding reports G protein activation.)
Method: (§1) [^35S]GTPγS Binding Assay: For receptor signaling, membranes (10 μg protein) from either ICR mouse cerebellum mice (6-8 weeks old; Enviga
(§2) Non-specific binding was determined by adding 30 μM unlabeled GTPyS. Concentration response curves for allosteric modulators were conducted in the presence of CP55,940 (100 nM or 1 μM) to calculate 1050 values.
(§3) For [^35S]GTPyS experiments, data were normalized to maximal CP55,940 (100 nM) stimulation in the absence of test compound (i.e., vehicle=100%).

The target of assay [3] is T2, mouse CB1R (Mus musculus, UniProt P47746).
T2 construct: membranes (10 μg protein) from either ICR mouse cerebellum mice; from tissue; host or cells: cerebellum membranes of ICR mice
T2 sequence (P47746 whole entry): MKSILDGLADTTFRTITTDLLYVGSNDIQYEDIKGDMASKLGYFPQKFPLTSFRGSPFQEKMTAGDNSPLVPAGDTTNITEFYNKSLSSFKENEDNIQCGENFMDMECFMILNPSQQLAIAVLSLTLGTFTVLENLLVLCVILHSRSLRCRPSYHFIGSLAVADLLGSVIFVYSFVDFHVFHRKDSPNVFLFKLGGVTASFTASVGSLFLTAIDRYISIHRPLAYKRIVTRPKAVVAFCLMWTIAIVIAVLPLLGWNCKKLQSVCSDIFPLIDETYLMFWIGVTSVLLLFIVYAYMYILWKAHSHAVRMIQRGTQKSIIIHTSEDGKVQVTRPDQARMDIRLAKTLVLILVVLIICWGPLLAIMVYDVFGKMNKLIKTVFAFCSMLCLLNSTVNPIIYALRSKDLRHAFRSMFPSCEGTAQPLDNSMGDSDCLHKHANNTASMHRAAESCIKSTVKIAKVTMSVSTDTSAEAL
The assay can be described thus: [35S]GTPγS binding assay in mouse cerebellum membranes. In kind it is biochemical.
Method: as §1, §2, §3
Select compounds were evaluated in the CP55,940-induced [^35S]GTPyS binding assays using mouse cerebellum membrane at two CP55,940 concentrations, 100 nM and 1μM.

Where [4] appears, read: CHO cells expressing human CB1R, against CP55,940 (100 nM), mean ± SEM, read-out: hCB1R Calcium assay IC50.
Where [5] appears, read: Tables 4-6, CP55,940 concentration not stated, mean (95% confidence interval), read-out: mCB1R [35S]GTPγS binding assay IC50.

The IC50 is the concentration that inhibits the measured activity by half.

Regarding `COc1cc(CCNC(=O)Nc2ccc(Cl)cc2)ccc1O` [Compound 49, 3-(4-Chlorophenyl)-1-[2-(4-hydroxy-3-methoxyphenyl)ethyl]urea], the concentration for half-maximal inhibition (IC50) in assay [1] is more than 10000 nM.

For the molecule `COC(=O)c1cccc(-c2ccc(NC(=O)Nc3ccc(Cl)cc3)s2)c1` [Compound 27, Methyl 3-(5-{[(4-chlorophenyl)carbamoyl]amino}thiophen-2-yl)benzoate], the IC50 in assay [2] came out at 2350 nM; in assay [1] (setting [4]), 345 ± 48 nM. As for `O=C(NCCc1ccccc1Cl)Nc1ccc(Cl)cc1` [Compound 67, 3-(4-Chlorophenyl)1-[2-(2-chlorophenyl)ethyl]urea], in assay [1], the IC50 is 237 ± 35 nM. With `N#Cc1ccc(CCNC(=O)Nc2ccc(Cl)cc2)cc1` [Compound 72, 3-(4-Chlorophenyl)1-[2-(4-cyanophenyl)ethyl]urea], the half-maximal inhibitory concentration (IC50) in assay [1] was found to be 443 ± 53 nM. Take `O=C(NCCc1ccc(Cl)cc1Cl)Nc1ccc(Cl)cc1` [Compound 69, 3-(4-Chlorophenyl)1-[2-(2,4-dichlorophenyl)ethyl]urea]: the IC50 in assay [1] came to 174 ± 34 nM.

On to `CC(C)(C)c1ccc(CCNC(=O)Nc2ccc(Cl)cc2)cc1` [Compound 45, 1-[2-(4-tert-Butylphenyl)ethyl]-3-(4-chlorophenyl)urea], for which the IC50 in assay [1] was found to be 573 ± 105 nM. Regarding `O=C(NCCN1CCCCC1)Nc1ccc(Cl)cc1` [Compound 81, 3-(4-Chlorophenyl)-1-[2-(piperidin-1-yl)ethyl]urea], in assay [1] (setting [4]), the 50% inhibitory concentration (IC50) was more than 10000 nM. The same measure, in the same setting: under `O=C(NC[C@@H]1C[C@H]1c1ccccc1)Nc1ccc(Cl)cc1` (relative stereo) [Compound 43, trans-1-(4-Chlorophenyl)-3-[(2-phenylcyclopropyl)methyl]urea] stands 2610 ± 548 nM.

In the case of `O=C(NCCc1ccccc1C(F)(F)F)Nc1ccc(Cl)cc1` [Compound 73, 3-(4-Chlorophenyl)-1-{2-[2-(trifluoromethyl)phenyl]ethyl}urea], the half-maximal inhibitory concentration (IC50) in assay [1] stood at 143 ± 34 nM.

As for `O=C(Nc1ccc(Cl)cc1)Nc1ccc(-c2ccc(Cl)cc2)s1` [Compound 23, 1-(4-Chlorophenyl)-3-[5-(4-chlorophenyl)thiophen-2-yl]urea], the IC50 in assay [2] came out at 774 nM; in assay [1] (setting [4]), 43 ± 7 nM. Turning to `COc1cccc(CCNC(=O)Nc2ccc(Cl)cc2)c1` [Compound 54, 3-(4-Chlorophenyl)-1-[2-(3-methoxyphenyl)ethyl]urea], the half-inhibitory concentration (IC50) in assay [1] worked out at 485 ± 93 nM.

Turning to `O=C(NCCc1ccc(C(F)(F)F)cc1)Nc1ccc(Cl)cc1` [Compound 75, 3-(4-Chlorophenyl)-1-{2-[4-(trifluoromethyl)phenyl]ethyl}urea], in assay [1], the IC50 turned out to be 194 ± 38 nM. Regarding `O=C(NCCCc1ccccc1)Nc1ccc(Cl)cc1` [Compound 37, 3-(4-Chlorophenyl)-1-(3-phenylpropyl)urea], the IC50 in assay [1] (setting [4]) turned out to be 3700 ± 481 nM. As to `O=C(NCCc1c(F)cc(F)cc1F)Nc1ccc(Cl)cc1` [Compound 65, 3-(4-Chlorophenyl)-1-[2-(2,4,6-trifluorophenyl)ethyl]urea], the IC50 in assay [1] turned out to be 81 ± 9 nM. For the molecule `O=C(NCCc1ccc(-c2ccccc2)cc1)Nc1ccc(Cl)cc1` [Compound 46, 3-(4-Chlorophenyl)-1-[2-(4-phenylphenyl)ethyl]urea], the IC50 in assay [1] was found to be 897 ± 167 nM. Regarding `O=C(NCCc1ccc(Br)cc1)Nc1ccc(Cl)cc1` [Compound 71, 3-(4-Chlorophenyl)1-[2-(4-bromophenyl)ethyl]urea], the half-inhibitory concentration (IC50) in assay [1] amounted to 151 ± 20 nM. Take `COc1ccc(-c2cccc(N3CCCC3)n2)cc1NC(=O)Nc1ccc(Cl)cc1` [Compound 6, 3-(4-Chlorophenyl)-1-{2-methoxy-5-[6-(pyrrolidin-1-yl)pyridin-2-yl]phenyl}urea]: the IC50 in assay [2] is more than 10000 nM; in assay [1] (setting [4]), 1270 nM. Regarding `COc1ccc(CCNC(=O)Nc2ccc(Cl)cc2)cc1OC` [Compound 56, 3-(4-Chlorophenyl)-1-[2-(3,4-dimethoxyphenyl)ethyl]urea], the IC50 in assay [1] stood at 1860 ± 319 nM.

On to `O=C(Nc1ccc(Cl)cc1)Nc1ccc(-c2cccc(Cl)c2)s1` [Compound 22, 1-(4-Chlorophenyl)-3-[5-(3-chlorophenyl)thiophen-2-yl]urea], for which the IC50 in assay [2] worked out at 553 nM; in assay [1] (setting [4]) it was 40 ± 7 nM. With `O=C(NCCc1c(F)cccc1Cl)Nc1ccc(Cl)cc1` [Compound 70, 3-(4-Chlorophenyl)1-[2-(2-chloro-6-fluorophenyl)ethyl]urea], the IC50 in assay [1] was found to be 408 ± 66 nM. As for `O=C(NCC1(c2ccccc2)CC1)Nc1ccc(Cl)cc1` [Compound 41, 1-(4-Chlorophenyl)-3-[(1-phenylcyclopropyl)methyl]urea], in assay [1] (setting [4]), the IC50 is 5160 ± 1150 nM. Take `O=C(NCCc1ccc(F)cc1)Nc1ccc(Cl)cc1` [Compound 63, 3-(4-Chlorophenyl)1-[2-(4-fluorophenyl)ethyl]urea]: the IC50 in assay [1] came out at 108 ± 19 nM. Still for that read-out and setting: in the case of `COc1ccccc1CCNC(=O)Nc1ccc(Cl)cc1` [Compound 53, 3-(4-Chlorophenyl)-1-[2-(2-methoxyphenyl)ethyl]urea] it was 1620 ± 248 nM. With `CC(=O)NCCNC(=O)Nc1ccc(Cl)cc1` [Compound 84, N-(2-{[(4-Chlorophenyl)carbamoyl]amino}ethyl)acetamide], the IC50 in assay [1] (setting [4]) amounted to 1830 ± 362 nM.

With `O=C(NCCc1c(F)c(F)c(F)c(F)c1F)Nc1ccc(Cl)cc1` [Compound 66, 3-(4-Chlorophenyl)1-[2-(2,3,4,5,6-pentafluorophenyl)ethyl]urea], in assay [1], the IC50 is 34 ± 7 nM.

Turning to `O=C(NCCN1CCOCC1)Nc1ccc(Cl)cc1` [Compound 82, 3-(4-Chlorophenyl)-1-[2-(morpholin-4-yl)ethyl]urea], in assay [1] (setting [4]), the IC50 was more than 10000 nM.

With `CS(=O)(=O)c1ccc(CCNC(=O)Nc2ccc(Cl)cc2)cc1` [Compound 52, 3-(4-Chlorophenyl)-1-[2-(4-methanesulfonylphenyl)ethyl]urea], the IC50 in assay [1] was more than 10000 nM. For `O=C(NCCc1ccc([N+](=O)[O-])cc1)Nc1ccc(Cl)cc1` [Compound 48, 3-(4-Chlorophenyl)-1-[2-(4-nitrophenyl)ethyl]urea], the IC50 in assay [3] (setting [5]) was 780 nM; in assay [1] it was 87 ± 12 nM. Turning to `Cc1ccc(CCNC(=O)Nc2ccc(Cl)cc2)cc1` [Compound 59, 3-(4-Chlorophenyl)1-[2-(4-methylphenyl)ethyl]urea], the IC50 in assay [1] was 137 ± 21 nM.

In the case of “3-(4-Chlorophenyl)-1-[2-(3-methoxyphenyl)ethyl]urea [Compound 55]”, the IC50 was determined as 3720 nM in assay [3] (setting [5]) and 228 ± 45 nM in assay [1] (setting [4]). Turning to `O=C(NCCN1CCCC1)Nc1ccc(Cl)cc1` [Compound 83, 1-(4-Chlorophenyl)-3-[2-(pyrrolidin-1-yl)ethyl]urea], in assay [1] (setting [4]), the IC50 was more than 10000 nM. Consider `CN(C)c1cccc(CCNC(=O)Nc2ccc(Cl)cc2)c1` [Compound 50, 3-(4-Chlorophenyl)-1-{2-[3-(dimethylamino)phenyl]ethyl}urea], for which the results for the IC50 in assay [3] and in assay [1] were 592 nM and 1680 ± 284 nM, respectively. In the same order, the values of `CN(C)c1ccc(CCNC(=O)Nc2ccc(Cl)cc2)cc1` [Compound 51, 3-(4-Chlorophenyl)-1-{2-[4-(dimethylamino)phenyl]ethyl}urea] are 1590 nM and 323 ± 88 nM.

Turning to `O=C(NCCc1cccnc1)Nc1ccc(Cl)cc1` [Compound 77, 3-(4-Chlorophenyl)-1-[2-(pyridin-3-yl)ethyl]urea], in assay [1] (setting [4]), the IC50 was more than 10000 nM. Consider `O=C(NCCc1cccc(C(F)(F)F)c1)Nc1ccc(Cl)cc1` [Compound 74, 3-(4-Chlorophenyl)-1-{2-[3-(trifluoromethyl)phenyl]ethyl}urea], for which the IC50 in assay [3] (setting [5]) is 766 nM; in assay [1] it was 32 ± 7 nM. As to `CN1CCN(CCNC(=O)Nc2ccc(Cl)cc2)CC1` [Compound 80, 3-(4-Chlorophenyl)-1-[2-(4-methylpiperazin-1-yl)ethyl]urea], the IC50 in assay [1] (setting [4]) was more than 10000 nM. For `Cc1ccc(CCNC(=O)Nc2ccc(Cl)cc2)o1` [Compound 79, 1-(4-Chlorophenyl)-3-[2-(5-methylfuran-2-yl)ethyl]urea], the IC50 in assay [3] (setting [5]) amounted to 2780 nM; in assay [1] (setting [4]), 255 ± 40 nM.

For `O=C(NCCc1ccc(O)cc1)Nc1ccc(Cl)cc1` [Compound 58, 3-(4-Chlorophenyl)1-[2-(4-hydroxyphenyl)ethyl]urea], in assay [1], the 50% inhibitory concentration (IC50) is more than 10000 nM. Still for that read-out and setting: in the case of `O=C(NCCc1ccccc1F)Nc1ccc(Cl)cc1` [Compound 61, 3-(4-Chlorophenyl)1-[2-(2-fluorophenyl)ethyl]urea] it was 174 ± 27 nM. As for `Cc1cccc(CCNC(=O)Nc2ccc(Cl)cc2)c1` [Compound 60, 3-(4-Chlorophenyl)1-[2-(3-methylphenyl)ethyl]urea], the IC50 was determined as 4180 nM in assay [3] (setting [5]) and 45 ± 9 nM in assay [1].

As to `O=C(NCCc1ccccn1)Nc1ccc(Cl)cc1` [Compound 78, 3-(4-Chlorophenyl)-1-[2-(pyridin-2-yl)ethyl]urea], in assay [1] (setting [4]), the half-inhibitory concentration (IC50) was found to be 3630 ± 687 nM.

For the molecule `O=C(NCCc1ccccc1)Nc1ccc(Cl)cc1` [Compound 44, 3-(4-Chlorophenyl)-1-(2-phenylethyl)urea], the IC50 in assay [1] was found to be 193 ± 35 nM. Take `O=C(NCC(F)(F)c1ccccc1)Nc1ccc(Cl)cc1` [Compound 39, 3-(4-Chlorophenyl)-1-(2,2-difluoro-2-phenylethyl)urea]: in assay [1] (setting [4]), the IC50 is 1580 ± 328 nM. Same read-out and setting: under `O=C(NCCc1ccncc1)Nc1ccc(Cl)cc1` [Compound 76, 3-(4-Chlorophenyl)-1-[2-(pyridin-4-yl)ethyl]urea] stands more than 10000 nM.

Turning to `O=C(NCCc1cccc(F)c1)Nc1ccc(Cl)cc1` [Compound 62, 3-(4-Chlorophenyl)-1-[2-(3-fluorophenyl)ethyl]urea], the IC50 in assay [3] (setting [5]) amounted to 1520 nM; in assay [1], 53 ± 9 nM. `O=C(NCCc1ccc(F)c(F)c1)Nc1ccc(Cl)cc1` [Compound 64, 3-(4-Chlorophenyl)-1-[2-(3,4-difluorophenyl)ethyl]urea]: the IC50 in assay [1] amounted to 47 ± 5 nM.
